Here are results for 32 compounds from patent publication US8895733B2 (Novartis AG, priority 2010, dated 2014).

The target in this test is T1, Nav 1.7 (Homo sapiens, UniProt Q15858).
T1 construct: expressed in transfected cells
T1 sequence (Q15858 whole entry): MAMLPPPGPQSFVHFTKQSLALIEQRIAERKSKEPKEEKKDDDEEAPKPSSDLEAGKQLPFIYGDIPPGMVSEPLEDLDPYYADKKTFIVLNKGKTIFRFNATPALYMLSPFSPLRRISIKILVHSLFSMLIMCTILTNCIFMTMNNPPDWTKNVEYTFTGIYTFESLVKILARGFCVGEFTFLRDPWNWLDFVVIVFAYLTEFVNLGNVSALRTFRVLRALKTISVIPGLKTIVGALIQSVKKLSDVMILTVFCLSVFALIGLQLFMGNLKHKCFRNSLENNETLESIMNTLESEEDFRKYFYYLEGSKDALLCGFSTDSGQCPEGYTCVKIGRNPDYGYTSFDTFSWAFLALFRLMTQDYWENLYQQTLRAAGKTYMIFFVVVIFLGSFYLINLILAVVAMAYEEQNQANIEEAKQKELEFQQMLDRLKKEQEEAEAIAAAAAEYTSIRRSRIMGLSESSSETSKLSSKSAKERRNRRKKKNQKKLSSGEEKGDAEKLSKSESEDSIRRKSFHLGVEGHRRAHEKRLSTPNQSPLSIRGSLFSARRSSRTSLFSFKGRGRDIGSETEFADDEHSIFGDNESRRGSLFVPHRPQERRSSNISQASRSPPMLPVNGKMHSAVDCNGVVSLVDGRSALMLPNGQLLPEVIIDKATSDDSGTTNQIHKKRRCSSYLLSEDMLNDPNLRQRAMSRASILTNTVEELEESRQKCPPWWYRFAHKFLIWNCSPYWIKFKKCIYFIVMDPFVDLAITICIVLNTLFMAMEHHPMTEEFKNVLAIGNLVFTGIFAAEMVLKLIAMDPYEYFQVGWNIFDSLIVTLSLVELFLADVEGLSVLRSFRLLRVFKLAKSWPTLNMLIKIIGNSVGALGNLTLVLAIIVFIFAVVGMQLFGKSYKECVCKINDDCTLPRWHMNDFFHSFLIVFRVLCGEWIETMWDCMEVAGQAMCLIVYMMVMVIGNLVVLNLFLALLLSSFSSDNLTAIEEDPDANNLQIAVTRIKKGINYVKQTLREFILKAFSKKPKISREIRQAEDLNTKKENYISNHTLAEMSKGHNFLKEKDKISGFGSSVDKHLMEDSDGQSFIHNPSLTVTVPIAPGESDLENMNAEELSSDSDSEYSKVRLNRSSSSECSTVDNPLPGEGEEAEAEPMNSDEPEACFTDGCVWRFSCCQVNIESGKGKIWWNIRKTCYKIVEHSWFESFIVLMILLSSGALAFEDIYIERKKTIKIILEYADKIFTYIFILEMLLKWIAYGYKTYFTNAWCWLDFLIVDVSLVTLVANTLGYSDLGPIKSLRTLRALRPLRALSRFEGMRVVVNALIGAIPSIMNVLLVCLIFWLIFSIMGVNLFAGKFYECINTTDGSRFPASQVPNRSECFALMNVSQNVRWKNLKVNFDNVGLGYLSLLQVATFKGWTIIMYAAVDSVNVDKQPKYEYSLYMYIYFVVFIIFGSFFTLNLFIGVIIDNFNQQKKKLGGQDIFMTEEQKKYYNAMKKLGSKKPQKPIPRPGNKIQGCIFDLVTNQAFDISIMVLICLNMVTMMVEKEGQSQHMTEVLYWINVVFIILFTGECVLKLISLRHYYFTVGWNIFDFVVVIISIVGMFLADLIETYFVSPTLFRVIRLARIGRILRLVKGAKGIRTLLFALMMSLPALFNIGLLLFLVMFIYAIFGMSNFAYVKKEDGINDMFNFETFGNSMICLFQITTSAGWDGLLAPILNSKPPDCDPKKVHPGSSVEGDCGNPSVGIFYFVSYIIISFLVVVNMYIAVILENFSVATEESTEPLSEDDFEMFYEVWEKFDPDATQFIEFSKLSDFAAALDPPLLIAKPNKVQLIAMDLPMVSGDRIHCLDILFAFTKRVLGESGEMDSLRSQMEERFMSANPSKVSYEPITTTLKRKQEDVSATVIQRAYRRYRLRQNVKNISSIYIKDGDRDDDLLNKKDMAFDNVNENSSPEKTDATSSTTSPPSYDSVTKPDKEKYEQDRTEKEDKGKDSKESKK
Briefly: Whole-cell voltage clamp electrophysiology, automated patch clamp (marker c in Table of Examples). The class given is cell-based. The conditions noted are these: marker c = Automated patch clamp data; read-out: Nav 1.7 activity. An outline of the steps:
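A voltage protocol weighted toward inactivated-state block was used to test compounds on stably expressing cells, with pulses from −65 mV holding to −10 mV test and −100 mV. Currents came from whole-cell automated patch-clamp recordings, either IonWorks Quattro or other automated instruments, usually in perforated-patch mode.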
As to `CN(c1ccccc1)c1nc(N)nc(-c2noc(-c3ccc(CN4CCCC4)nc3)n2)n1` [Example 293, 2-N-Methyl-2-N-phenyl-6-{5-[6-(pyrrolidin-1-ylmethyl)pyridin-3-yl]-1,2,4-oxadiazol-3-yl}-1,3,5-triazine-2,4-diamine], the IC50 was found to be 1350 nM.

On to `CC(c1ccc(-c2nc(-c3nc(N)nc(N(C)c4ccccc4)n3)no2)nc1)N1CCCC1` (centres unmarked) [Example 294, 2-N-Methyl-2-N-phenyl-6-(5-{5-[1-(pyrrolidin-1-yl)ethyl]pyridin-2-yl}-1,2,4-oxadiazol-3-yl)-1,3,5-triazine-2,4-diamine], for which the IC50 was determined as 3980 nM.

Turning to `CN(c1ccccc1)c1nc(N)nc(-c2noc(-c3ccc(CO)nc3)n2)n1` [Example 295, [5-(3-{4-Amino-6-[methyl(phenyl)amino]-1,3,5-triazin-2-yl}-1,2,4-oxadiazol-5-yl)pyridin-2-yl]methanol], the IC50 was found to be 5190 nM.

As for `CC(=O)c1ccc(-c2nc(-c3nc(N)nc(N(C)c4ccccc4)n3)no2)nc1` [Example 296, 1-[6-(3-{4-amino-6-[methyl(phenyl)amino]-1,3,5-triazin-2-yl}-1,2,4-oxadiazol-5-yl)pyridin-3-yl]ethan-1-one], the IC50 was found to be 274 nM.

With `COC(=O)c1ccc(-c2nc(-c3nc(N)nc(Nc4ccccc4)n3)no2)cn1` [Example 297], the IC50 is 210 nM.

Take `CN(c1ccccc1)c1nc(N)nc(-c2noc(-c3ccc(CN4CCOCC4)nc3)n2)n1` [Example 299, 2-N-methyl-6-{5-[6-(morpholin-4-ylmethyl)pyridin-3-yl]-1,2,4-oxadiazol-3-yl}-2-N-phenyl-1,3,5-triazine-2,4-diamine]: the IC50 turned out to be 1110 nM.

`CN(c1ccccc1)c1nc(N)nc(-c2noc(-c3ccc(CNC4CCC4)nc3)n2)n1` [Example 300, 6-(5-{6-[(cyclobutylamino)methyl]pyridin-3-yl}-1,2,4-oxadiazol-3-yl)-2-N-methyl-2-N-phenyl-1,3,5-triazine-2,4-diamine]: the IC50 amounted to 619 nM.

As for `CN(c1ccccc1)c1nc(N)nc(-c2noc(-c3cccnc3COCC(F)(F)F)n2)n1` [Example 301, 2-N-methyl-2-N-phenyl-6-(5-{2-[(2,2,2-trifluoroethoxy)methyl]pyridin-3-yl}-1,2,4-oxadiazol-3-yl)-1,3,5-triazine-2,4-diamine], the IC50 is 338 nM.

As for `CN(c1ccccc1)c1nc(N)nc(-c2noc(-c3ncccc3COCC(F)(F)F)n2)n1` [Example 302, 2-N-methyl-2-N-phenyl-6-(5-{3-[(2,2,2-trifluoroethoxy)methyl]pyridin-2-yl}-1,2,4-oxadiazol-3-yl)-1,3,5-triazine-2,4-diamine], the IC50 worked out at 406 nM.

Turning to `CC(=O)c1ccc(-c2nc(-c3nc(N)nc(N(C)c4ccccc4)n3)no2)cn1` [Example 304, 1-[5-(3-{4-Amino-6-[methyl(phenyl)amino]-1,3,5-triazin-2-yl}-1,2,4-oxadiazol-5-yl)pyridin-2-yl]ethan-1-one], the IC50 stood at 746 nM.

As for `C=Cc1ccc(-c2nc(-c3nc(N)nc(N(C)c4ccccc4)n3)no2)cc1` [Example 305, 6-[5-(4-ethenylphenyl)-1,2,4-oxadiazol-3-yl]-2-N-methyl-2-N-phenyl-1,3,5-triazine-2,4-diamine], the IC50 is 804 nM.

Consider `CN(c1ccccc1)c1nc(N)nc(-c2noc(-c3ccc4c(c3)COC4)n2)n1` [Example 306, 6-(5-(1,3-dihydro-2-benzofuran-5-yl)-1,2,4-oxadiazol-3-yl]-2-N-methyl-2-N-phenyl-1,3,5-triazine-2,4-diamine], for which the IC50 turned out to be 2670 nM.

Regarding `CCCS(=O)(=O)N1CC(c2nc(-c3nc(N)nc(N(C)c4ccccc4)n3)no2)C1` [Example 307, 2-N-methyl-2-N-phenyl-6-{5-[1-(propane-1-sulfonyl)azetidin-3-yl]-1,2,4-oxadiazol-3-yl}-1,3,5-triazine-2,4-diamine], the IC50 was found to be 8050 nM.

On to `CC(C)S(=O)(=O)N1CC(c2nc(-c3nc(N)nc(N(C)c4ccccc4)n3)no2)C1` [Example 308, 2-N-methyl-2-N-phenyl-6-{5-[1-(propane-2-sulfonyl)azetidin-3-yl]-1,2,4-oxadiazol-3-yl}-1,3,5-triazine-2,4-diamine], for which the IC50 was 8770 nM.

For `CCS(=O)(=O)N1CC(c2nc(-c3nc(N)nc(N(C)c4ccccc4)n3)no2)C1` [Example 309, 6-{5-[1-(ethanesulfonyl)azetidin-3-yl]-1,2,4-oxadiazol-3-yl}-2-N-methyl-2-N-phenyl-1,3,5-triazine-2,4-diamine], the IC50 turned out to be 1730 nM.

With `CN(c1ccccc1)c1nc(N)nc(-c2noc(C3CN(S(=O)(=O)CC(F)(F)F)C3)n2)n1` [Example 310, 2-N-methyl-2-N-phenyl-6-(5-{1-[(2,2,2-trifluoroethane)sulfonyl]azetidin-3-yl}-1,2,4-oxadiazol-3-yl)-1,3,5-triazine-2,4-diamine], the IC50 was 968 nM.

Take `COCCN(c1ccccc1)c1nc(N)nc(-c2noc(-c3ccc(C(=O)OC)nc3)n2)n1` [Example 311, methyl 5-(3-{4-amino-6-[(2-methoxyethyl)(phenyl)amino]-1,3,5-triazin-2-yl}-1,2,4-oxadiazol-5-yl)pyridine-2-carboxylate]: the IC50 amounted to 451 nM.

For the compound `COCCN(c1ccccc1)c1nc(N)nc(-c2noc(-c3ccc(COCC(F)(F)F)nc3)n2)n1` [Example 312, 2-N-(2-Methoxyethyl)-2-N-phenyl-6-(5-{6-[(2,2,2-trifluoroethoxy)methyl]pyridin-3-yl}-1,2,4-oxadiazol-3-yl)-1,3,5-triazine-2,4-diamine], the IC50 came out at 139 nM.

In the case of `CN(c1ccccc1)c1nc(N)nc(-c2noc(C3CN(S(=O)(=O)c4ccccc4)C3)n2)n1` [Example 313, 6-{5-[1-(benzenesulfonyl)azetidin-3-yl]-1,2,4-oxadiazol-3-yl}-2-N-methyl-2-N-phenyl-1,3,5-triazine-2,4-diamine], the IC50 came out at 4860 nM.

Take `CN(c1ccccc1)c1nc(N)nc(-c2noc(C3CN(CC(F)(F)F)C3)n2)n1` [Example 314, 2-N-Methyl-2-N-phenyl-6-{5-[1-(2,2,2-trifluoroethyl)azetidin-3-yl]-1,2,4-oxadiazol-3-yl}-1,3,5-triazine-2,4-diamine]: the IC50 was found to be 3070 nM.

For the compound `CN(c1ccccc1)c1nc(N)nc(-c2noc(-c3ccc(CCC(F)(F)F)nc3)n2)n1` [Example 315, 2-N-methyl-2-N-phenyl-6-{5-[6-(3,3,3-trifluoropropyl)pyridin-3-yl]-1,2,4-oxadiazol-3-yl}-1,3,5-triazine-2,4-diamine], the IC50 stood at 170 nM.

With `CN(c1ccccc1)c1nc(N)nc(-c2noc(-c3ccc(CSCC(F)(F)F)nc3)n2)n1` [Example 316, 2-N-methyl-2-N-phenyl-6-[5-(6-{[(2,2,2-trifluoroethyl)sulfanyl]methyl}pyridin-3-yl)-1,2,4-oxadiazol-3-yl]-1,3,5-triazine-2,4-diamine], the IC50 came out at 13 nM.

Regarding `CN(c1ccccc1)c1nc(N)nc(-c2noc(-c3ccc(C[S+]([O-])CC(F)(F)F)nc3)n2)n1` (centres unmarked) [Example 317, 2-N-Methyl-2-N-phenyl-6-[5-(6-{[(2,2,2-trifluoroethane)sulfinyl]methyl}pyridin-3-yl)-1,2,4-oxadiazol-3-yl]-1,3,5-triazine-2,4-diamine], the IC50 is 2770 nM.

As to `CN(c1ccccc1)c1nc(N)nc(-c2noc(-c3ccc(SCC(F)(F)F)nc3)n2)n1` [Example 318, 2-N-methyl-2-N-phenyl-6-(5-{6-[(2,2,2-trifluoroethyl)sulfanyl]pyridin-3-yl}-1,2,4-oxadiazol-3-yl)-1,3,5-triazine-2,4-diamine], the IC50 was found to be 1890 nM.

Regarding `Nc1nc(Nc2ccccc2)nc(-c2noc(-c3ccc(CCC(F)(F)F)nc3)n2)n1` [Example 319, 2-N-phenyl-6-{5-[6-(3,3,3-trifluoropropyl)pyridin-3-yl]-1,2,4-oxadiazol-3-yl}-1,3,5-triazine-2,4-diamine], the IC50 was 150 nM.

`CN(c1ccccc1)c1nc(N)nc(-c2noc(-c3ccc(CS(=O)(=O)CC(F)(F)F)nc3)n2)n1` [Example 321, 2-N-methyl-2-N-phenyl-6-[5-(6-{[(2,2,2-trifluoroethane)sulfonyl]methyl}pyridin-3-yl)-1,2,4-oxadiazol-3-yl]-1,3,5-triazine-2,4-diamine]: the IC50 worked out at 149 nM.

Consider `CN(c1ccccc1)c1nc(N)nc(-c2noc(C(=O)N3CCC(=CCC(F)(F)F)CC3)n2)n1` [Example 322, 2-N-methyl-2-N-phenyl-6-(5-{[4-(3,3,3-trifluoropropylidene)piperidin-1-yl]carbonyl}-1,2,4-oxadiazol-3-yl)-1,3,5-triazine-2,4-diamine], for which the IC50 came to 3270 nM.

In the case of `CN(c1ccccc1)c1nc(N)nc(-c2noc(N3Cc4cncnc4C3)n2)n1` [Example 323, 2-N-Methyl-2-N-phenyl-6-(5-{5H,6H,7H-pyrrolo[3,4-d]pyrimidin-6-yl}-1,2,4-oxadiazol-3-yl)-1,3,5-triazine-2,4-diamine], the IC50 turned out to be 6450 nM.

Turning to `CN(c1ccccc1)c1nc(N)nc(-c2noc(N3CCC(=CCC(F)(F)F)CC3)n2)n1` [Example 324, 2-N-Methyl-2-N-phenyl-6-{5-[4-(3,3,3-trifluoropropylidene)piperidin-1-yl]-1,2,4-oxadiazol-3-yl}-1,3,5-triazine-2,4-diamine], the IC50 was determined as 2360 nM.

With `Nc1nc(Nc2cc(Cl)ccc2F)nc(-c2noc(-c3ccccn3)n2)n1` [Example 325, 2-N-(5-chloro-2-fluorophenyl)-6-[5-(pyridin-2-yl)-1,2,4-oxadiazol-3-yl]-1,3,5-triazine-2,4-diamine], the IC50 came to 435 nM.

`CN(c1ccccc1)c1nc(N)nc(-c2noc(-c3ccc(NCC(F)(F)F)nc3)n2)n1` [Example 327, 2-N-Methyl-2-N-phenyl-6-(5-{6-[(2,2,2-trifluoroethyl)amino]pyridin-3-yl}-1,2,4-oxadiazol-3-yl)-1,3,5-triazine-2,4-diamine]: the IC50 is 1860 nM.

For `CN(c1ccccc1)c1nc(N)nc(-c2noc(-c3ccc(NC4CCOC4)nc3)n2)n1` (centres unmarked) [Example 328, 2-N-methyl-6-(5-{6-[(oxolan-3-yl)amino]pyridin-3-yl}-1,2,4-oxadiazol-3-yl)-2-N-phenyl-1,3,5-triazine-2,4-diamine], the IC50 is 7960 nM.
